Measurements published in US20070232492A1, “Herbicidal Composition” (Ishihara Sangyo Kaisha, LTD., priority 2004, published 2007).
Read-outs that look alike come from different tables or passages of the source.

Assays:
Type in all cases: in vivo
[1] = test system: barnyardgrass (Echinochloa oryzicola vasing); assay: Growth inhibition of barnyardgrass in paddy soil pots, application under submerged condition, visual rating (observed value) and Colby expected value; conditions: for inhibition at 100 g/ha / inhibition at 200 g/ha / inhibition at 150 g/ha / inhibition at 300 g/ha: Echinochloa oryzicola, soil, 504 h; for inhibition at 100 g/ha: 1 g/a; for inhibition at 100 g/ha / inhibition at 200 g/ha: read-out: Growth inhibition rate (%) Observed; for inhibition at 200 g/ha: 2 g/a; for inhibition at 150 g/ha: read-out: Growth inhibition rate (%) Observed, 1.5 g/a
Method in brief: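 Barnyardgrass (Echinochloa oryzicola vasing) seeds were sown in paddy field soil in 1/10,000 are pots and kept irrigated at a water depth of 3.5 cm. Wettable powders of the active ingredients were diluted with water and applied under submerged conditions at the prescribed amounts. Growth was visually scored from 0% (as untreated) to 100% (complete kill), and expected values were calculated with Colby's formula.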

[2] = Growth inhibition of mixed broadleaf paddy weeds in paddy soil pots, application under submerged condition, visual rating and Colby expected value; conditions: mixed broadleaf paddy weeds, soil, 528 h, read-out: Growth inhibition rate (%) Observed
Excerpt: (§1) When the herbicidal activity in a case where two active ingredients are combined, is larger than the simple sum of the respective herbicidal activities of the two active ingredients (the expected activity), it is called a synergistic effect. The activity expected by the combination of two active ingredients can be calculated as follows (Colby S. R., “Weed”, vol. 15, p. 20-22, 1967). E=p+q−(p×q÷100) where p: growth inhibition rate when treated with x (g/a) of herbicide X,
(§2) q: growth inhibition rate when treated with y (g/a) of herbicide Y,
(§3) E: growth inhibition rate expected when treated with x (g/a) of herbicide X and y (g/a) of herbicide Y.
(§4) Namely, when the actual growth inhibition rate (observed value) is larger than the growth inhibition rate by the above calculation (expected value), the activity by the combination can be regarded as showing a synergistic effect.
(§5) Growth inhibition rate (%)=0% (equivalent to the non-treated area) to 100% (complete kill)
(§6) Paddy field soil was put into a 1/1,700 are pot, and mixed seeds of false pimpernel (Lindernia pyxidaria), abunome (Dopatrium junceum), long stem waterwort (Elatine triandra SCHK.) and toothcup (Rotala india) were sown and left to stand under an irrigated condition with a water depth of 3.5 cm. When false pimpernel reached one leaf-pair stage, wettable powders of compound A2 and compound (B1.2) were, respectively, diluted with water and applied under submerged condition so that the active ingredients became the prescribed amounts, respectively. The state of growth was visually observed 21 days after application, and evaluation and calculation were carried out in the same manner as in the above Test Example 1.
(§7) Paddy field soil was put into a 1/1,700 are pot, and mixed seeds of false pimpernel (Lindernia pyxidaria), abunome (Dopatrium junceum), long stem waterwort (Elatine triandra SCHK.) and toothcup (Rotala india) were sown and left to stand under an irrigated condition with a water depth of 3.5 cm. When false pimpernel reached two leaf-pair stage, a wettable powder of compound A2 and an emulsifiable concentrate of compound (B8.1) were, respectively, diluted with water and applied under submerged condition so that the active ingredients became the prescribed amounts, respectively. The state of growth was visually observed 22 days after application, and evaluation and calculation were carried out in the same manner as in the above Test Example 1.

[3] = test system: barnyardgrass (Echinochloa oryzicola vasing); assay: Growth inhibition of barnyardgrass in paddy soil pots, foliar application with a small sprayer, visual rating and Colby expected value; conditions: 3.0 to 3.3 leaf stage, 21 days after application
Excerpt: as §1, §2, §3, §4, §5
Paddy field soil was put into a 1/10,000 are pot, and seeds of barnyardgrass (Echinochloa oryzicola vasing) were sown and left to stand under an irrigated condition with a water depth of 3.5 cm. When barnyardgrass reached 3.0 to 3.3 leaf stage, a wettable powder of compound A2 and a water-based suspension of compound (B11.1) were, respectively, diluted with water in an amount of 1,000 liter/ha, followed by foliar application with a small sprayer. The state of growth was visually observed 21 days after application, and evaluation and calculation were carried out in the same manner as in the above Test Example 1.

[4] = test system: false pimpernel (Lindernia pyxidaria), abunome (Dopatrium junceum), long stem waterwort (Elatine triandra SCHK.) and toothcup (Rotala india); assay: Growth inhibition of mixed broadleaf paddy weeds in paddy soil pots, application under submerged condition, visual rating and Colby expected value; conditions: 0.22 g/a
Excerpt: as §1, §2, §3, §4, §5, §6, §7

[5] = test system: rice (Oryza sativa var. Nihonbare); assay: Growth inhibition (phytotoxicity) of transplanted rice by compound A2 with or without compound D, application under submerged condition, visual rating 7 and 21 days after application; conditions: Compound A2 60 g/ha, Compound D not applied, applied 5 days after implantation
Excerpt: as §5
Paddy field soil was put into a 1/500,000 hectare pot, harrowed and irrigated with a depth of 3 cm. On the next day, rice (Oryza sativa var. Nihonbare) at 2 leaf stage was implanted with a depth of 3 cm. A wettable powder of compound A2 and a wettable powder of compound D were, respectively, diluted with water and applied under submerged condition 5 days after implantation so that the active ingredients became the prescribed amounts, respectively. The state of growth of rice was visually observed 7 days and 21 days after application, and the growth inhibition rate (%) was evaluated in the same is manner as in the above Test Example 1.

[6] = 2.0 to 2.5 leaf stage, 21 days after application
[7] = 2.8 to 3.2 leaf stage, 21 days after application, Test Examples 39-43

Compound: CCCOCCN(C(=O)CCl)c1c(CC)cccc1CC [Compound (B3.1), pretilachlor]
- inhibition at 100 g/ha [1, 6]: 17%
- inhibition at 100 g/ha [1, 7]: 0%
- inhibition at 200 g/ha [1, 6]: 33%
- inhibition at 200 g/ha [1, 7]: 0%

Compound: CCS(=O)(=O)Oc1ccc2c(c1)C(C)(C)CO2 [Compound (B8.1), benfuresate]
- inhibition at 150 g/ha [1, 6]: 10%
- inhibition at 150 g/ha ([1]; 3.0 to 3.3 leaf stage, 21 days after application): 0%
- inhibition at 300 g/ha ([1]; read-out: Growth inhibition rate (%) Observed, 3 g/a, 2.0 to 2.5 leaf stage, 21 days after application): 33%
- inhibition at 300 g/ha ([1]; read-out: Growth inhibition rate (%) Observed, 3.0 g/a, 3.0 to 3.3 leaf stage, 21 days after application): 0%
- inhibition at 1200 g/ha [2]: 70%

Compound: COCC(=O)OC(c1ncccc1S(=O)(=O)NC(=O)Nc1nc(OC)cc(OC)n1)C(C)F (stereo not drawn) [Compound A2, flucetosulfuron]
- Growth inhibition rate (%) Observed ([1]; 0.055 g/a, 2.8 to 3.2 leaf stage, 21 days after application): 55%
- Growth inhibition rate (%) Observed ([1]; 0.083 g/a, 2.1 to 3.2 leaf stage, 21 days after application): 90%
- Growth inhibition rate (%) Observed ([1]; 0.083 g/a, 2.1 to 3.2 leaf stage, 22 days after application): 90%
- Growth inhibition rate (%) Observed ([1]; 0.083 g/a, 2.5 to 3.0 leaf stage, 22 days after application): 67%
- Growth inhibition rate (%) Observed ([1]; 0.083 g/a, 2.8 to 3.2 leaf stage, 19 days after application, Test Examples 62-65): 55%
- Growth inhibition rate (%) Observed ([1]; 0.083 g/a, 2.8 to 3.2 leaf stage, 21 days after application): 65%
- Growth inhibition rate (%) Observed ([1]; 0.083 g/a, 2.8 to 3.2 leaf stage, 21 days after application, Test Examples 39-43): 55%
- Growth inhibition rate (%) Observed ([1]; 0.11 g/a, 2.0 to 2.5 leaf stage, 21 days after application): 90%
- Growth inhibition rate (%) Observed ([1]; 0.11 g/a, 2.1 to 3.2 leaf stage, 21 days after application): 92%
- Growth inhibition rate (%) Observed ([1]; 0.11 g/a, 2.1 to 3.2 leaf stage, 22 days after application): 92%
- Growth inhibition rate (%) Observed ([1]; 0.11 g/a, 2.4 to 3.2 leaf stage, 29 days after application, Test Example 45): 96%
- Growth inhibition rate (%) Observed ([1]; 0.11 g/a, 2.5 to 3.0 leaf stage, 22 days after application): 83%
- Growth inhibition rate (%) Observed ([1]; 0.11 g/a, 2.8 to 3.2 leaf stage, 19 days after application, Test Examples 62-65): 68%
- Growth inhibition rate (%) Observed ([1]; 0.11 g/a, 2.8 to 3.2 leaf stage, 21 days after application): 75%
- Growth inhibition rate (%) Observed ([1]; 0.11 g/a, 2.8 to 3.2 leaf stage, 21 days after application, Test Examples 39-43): 70%
- Growth inhibition rate (%) Observed ([1]; 0.165 g/a, 2.0 to 2.5 leaf stage, 21 days after application): 90%
- Growth inhibition rate (%) Observed ([1]; 0.165 g/a, 2.1 to 3.2 leaf stage, 21 days after application): 96%
- Growth inhibition rate (%) Observed ([1]; 0.165 g/a, 2.1 to 3.2 leaf stage, 22 days after application): 96%
- Growth inhibition rate (%) Observed ([1]; 0.165 g/a, 2.5 to 3.0 leaf stage, 22 days after application): 89%
- Growth inhibition rate (%) Observed ([1]; 0.165 g/a, 2.8 to 3.2 leaf stage, 19 days after application, Test Examples 62-65): 73%
- Growth inhibition rate (%) Observed ([1]; 8.3 g/ha, 3 leaf stage, 22 days after application, Test Example 36): 67%
- Growth inhibition rate (%) Observed ([1]; 8.3 g/ha, 3 leaf stage, 22 days after application, Test Example 38): 83%
- Growth inhibition rate (%) Observed ([1]; 11 g/ha, 3 leaf stage, 22 days after application, Test Example 36): 83%
- Growth inhibition rate (%) Observed ([1]; 11 g/ha, 3 leaf stage, 22 days after application, Test Example 38): 96%
- Growth inhibition rate (%) Observed ([1]; 16.5 g/ha, 3 leaf stage, 22 days after application, Test Example 36): 89%
- Growth inhibition rate (%) Observed ([1]; 16.5 g/ha, 3 leaf stage, 22 days after application, Test Example 38): 98%
- Growth inhibition rate (%) Observed ([3]; 0.083 g/a): 23%
- Growth inhibition rate (%) Observed ([3]; 0.11 g/a): 50%
- Growth inhibition rate (%) Observed ([3]; 0.165 g/a): 60%
- Growth inhibition rate (%) Observed ([4]; false pimpernel one leaf-pair stage, 21 days after application): 90%
- Growth inhibition rate (%) Observed ([4]; false pimpernel two leaf-pair stage, 22 days after application): 65%
- Growth inhibition rate (%) (average) 7 days ([5]; 7 days after application): 23%
- Growth inhibition rate (%) (average) 21 days ([5]; 21 days after application): 33%
